The test system of this assay is Wnt activity (wnt-responsive SP5 promoter luciferase reporter in SW480 cells). The assay can be described thus: Wnt reporter screening assay: SP5 promoter-driven firefly luciferase in SW480 cells. The conditions noted are these: Homo sapiens; SW480 colon cancer cells with SP5 promoter luciferase reporter; half-log dilutions, ten micromolar top concentration; read 24-40 h after compound addition; normalized to DMSO; read-out: Wnt inhibition. Format: cell-based. The text has this:
Another screening assay for Wnt activity is described as follows. Reporter cell lines can be generated by stably transducing cells of cancer cell lines (e.g., colon cancer) with a lentiviral construct that include a wnt-responsive promoter driving expression of the firefly luciferase gene.
Lentiviral constructs can be made in which the SP5 promoter, a promoter having eight TCF/LEF binding sites derived from the SP5 promoter, is linked upstream of the firefly luciferase gene. The lentiviral constructs can also include a hygromycin resistance gene as a selectable marker. The SP5 promoter construct can be used to transduce SW480 cells, a colon cancer cell line having a mutated APC gene that generates a truncated APC protein, leading to de-regulated accumulation of β-catenin.
Cultured SW480 cells bearing a reporter construct can be distributed at approximately 10,000 cells per well into 96 well or 384 well plates. Compounds from a small molecule compound library can then be added to the wells in half-log dilutions using a ten micromolar top concentration. A series of control wells for each cell type receive only buffer and compound solvent. Twenty-four to forty hours after the addition of compound, reporter activity for luciferase can be assayed, for example, by addition of the BrightGlo luminescence reagent (Promega) and the Victor3 plate reader (Perkin Elmer). Readings can be normalized to DMSO only treated cells, and normalized activities can then be used in the IC50 calculations.
For orientation: Reporter assays use an easily measured gene product as a stand-in for the process of interest.

The text below walks through data of patent US11780823B2, “Indazole-3-carboxamides and their use as Wnt/β-catenin signaling pathway inhibitors” (BioSplice Therapeutics, Inc., priority 2011, dated 2023).

On to `CN1CCN(C(=O)c2n[nH]c3ccc(-c4cncc(CN5CCCCC5)c4)cc23)CC1` [Compound 83, (4-Methylpiperazin-1-yl)(5-(5-(piperidin-1-ylmethyl)pyridin-3-yl)-1H-indazol-3-yl)methanone], for which the IC50 lay in the range of 2.5 to 3.4 µM.
With `C[C@@H]1CCC[C@H](C)N1Cc1cncc(-c2ccc3[nH]nc(C(=O)Nc4cccnc4)c3c2)c1` [Compound 84, 5-(5-(((2R,6S)-2,6-Dimethylpiperidin-1-yl)methyl)pyridin-3-yl)-N-(pyridin-3-yl)-1H-indazole-3-carboxamide], the IC50 was 0.822 to 0.898 µM.
With `CN(C)Cc1cncc(NC(=O)c2n[nH]c3ccc(-c4cncc(CN5CCCCC5)c4)cc23)c1` [Compound 86, N-(5-((Dimethylamino)methyl)pyridin-3-yl)-5-(5-(piperidin-1-ylmethyl)pyridin-3-yl)-1H-indazole-3-carboxamide] the figure was 0.066 µM.
For the compound `CN1CCC(NC(=O)c2n[nH]c3ccc(-c4cncc(CN5CCCCC5)c4)cc23)CC1` [Compound 87, N-(1-Methylpiperidin-4-yl)-5-(5-(piperidin-1-ylmethyl)pyridin-3-yl)-1H-indazole-3-carboxamide], the IC50 came to 2.44 µM.
As for `CN(C)Cc1cncc(NC(=O)c2n[nH]c3ccc(-c4cncc(CN5CCCC5)c4)cc23)c1` [Compound 106, N-(5-((Dimethylamino)methyl)pyridin-3-yl)-5-(5-(pyrrolidin-1-ylmethyl)pyridin-3-yl)-1H-indazole-3-carboxamide], the IC50 turned out to be 0.033 µM.
`CN1CCN(Cc2cncc(NC(=O)c3n[nH]c4ccc(-c5cncc(CN6CCCCC6)c5)cc34)c2)CC1` [Compound 124, N-(5-((4-Methylpiperazin-1-yl)methyl)pyridin-3-yl)-5-(5-(piperidin-1-ylmethyl)pyridin-3-yl)-1H-indazole-3-carboxamide]: the IC50 turned out to be 0.067 µM.
As to `O=C(Nc1ccc(N2CCCCC2)nc1)c1n[nH]c2ccc(-c3cncc(CN4CCCCC4)c3)cc12` [Compound 126, N-(6-(Piperidin-1-yl)pyridin-3-yl)-5-(5-(piperidin-1-ylmethyl)pyridin-3-yl)-1H-indazole-3-carboxamide], the IC50 turned out to be 0.022 µM.
With `O=C(Nc1cccc(F)c1)c1n[nH]c2ccc(-c3cncc(CN4CCCCC4)c3)cc12` [Compound 162, N-(3-Fluorophenyl)-5-(5-(piperidin-1-ylmethyl)pyridin-3-yl)-1H-indazole-3-carboxamide] the figure was 0.426 µM; with `O=C(NC1CCOCC1)c1n[nH]c2ccc(-c3cncc(CN4CCCCC4)c3)cc12` [Compound 163, 5-(5-(Piperidin-1-ylmethyl)pyridin-3-yl)-N-(tetrahydro-2H-pyran-4-yl)-1H-indazole-3-carboxamide], 15.4 µM; with `O=C(Nc1cncc(F)c1)c1n[nH]c2ccc(-c3cncc(CN4CCCCC4)c3)cc12` [Compound 168, N-(5-Fluoropyridin-3-yl)-5-(5-(piperidin-1-ylmethyl)pyridin-3-yl)-1H-indazole-3-carboxamide], 0.066 µM.
Regarding `O=C(Nc1ccc(N2CCC(O)CC2)nc1)c1n[nH]c2ccc(-c3cncc(CN4CCCCC4)c3)cc12` [Compound 169, N-(6-(4-Hydroxypiperidin-1-yl)pyridin-3-yl)-5-(5-(piperidin-1-ylmethyl)pyridin-3-yl)-1H-indazole-3-carboxamide], the IC50 stood at 0.049 µM.
With `O=C(Nc1ccc(N2CCCC2)nc1)c1n[nH]c2ccc(-c3cncc(CN4CCC(O)CC4)c3)cc12` [Compound 170, 5-(5-((4-Hydroxypiperidin-1-yl)methyl)pyridin-3-yl)-N-(6-(pyrrolidin-1-yl)pyridin-3-yl)-1H-indazole-3-carboxamide] the figure was 0.043 µM; with `Cc1cc(NC(=O)c2n[nH]c3ccc(-c4cncc(CN5CCCCC5)c4)cc23)cnc1N1CCCC1` [Compound 172, N-(5-Methyl-6-(pyrrolidin-1-yl)pyridin-3-yl)-5-(5-(piperidin-1-ylmethyl)pyridin-3-yl)-1H-indazole-3-carboxamide], 0.06 µM.
Consider `Cc1cc(NC(=O)c2n[nH]c3ccc(-c4cncc(CN5CCCCC5)c4)cc23)cnc1N1CCC1` [Compound 173, N-(6-(Azetidin-1-yl)-5-methylpyridin-3-yl)-5-(5-(piperidin-1-ylmethyl)pyridin-3-yl)-1H-indazole-3-carboxamide], for which the IC50 came out at 0.036 µM.
As for `O=C(Nc1ccc(N2CCC2)nc1)c1n[nH]c2ccc(-c3cncc(CN4CCCCC4)c3)cc12` [Compound 174, N-(6-(Azetidin-1-yl)pyridin-3-yl)-5-(5-(piperidin-1-ylmethyl)pyridin-3-yl)-1H-indazole-3-carboxamide], the IC50 turned out to be 0.048 µM.
With `COc1ccc(NC(=O)c2n[nH]c3ccc(-c4cncc(CN5CCCCC5)c4)cc23)cn1` [Compound 175, N-(6-Methoxypyridin-3-yl)-5-(5-(piperidin-1-ylmethyl)pyridin-3-yl)-1H-indazole-3-carboxamide], the IC50 is 0.025 µM.
In the case of `Nc1ncc(NC(=O)c2n[nH]c3ccc(-c4cncc(CN5CCCCC5)c4)cc23)cn1` [Compound 176, N-(2-Aminopyrimidin-5-yl)-5-(5-(piperidin-1-ylmethyl)pyridin-3-yl)-1H-indazole-3-carboxamide], the IC50 worked out at 0.03 µM.
With `O=C(Nc1ccc(N2CCNCC2)nc1)c1n[nH]c2ccc(-c3cncc(CN4CCCCC4)c3)cc12` [Compound 177, N-(6-(Piperazin-1-yl)pyridin-3-yl)-5-(5-(piperidin-1-ylmethyl)pyridin-3-yl)-1H-indazole-3-carboxamide], the IC50 stood at 0.183 µM.
With `O=C(Nc1ccc(O)nc1)c1n[nH]c2ccc(-c3cncc(CN4CCCCC4)c3)cc12` [Compound 178, N-(6-Hydroxypyridin-3-yl)-5-(5-(piperidin-1-ylmethyl)pyridin-3-yl)-1H-indazole-3-carboxamide] the figure was 0.297 µM.
To `O=C(Nc1ccc(C(=O)N2CCCC2)nc1)c1n[nH]c2ccc(-c3cncc(CN4CCCCC4)c3)cc12` [Compound 179, 5-(5-(Piperidin-1-ylmethyl)pyridin-3-yl)-N-(6-(pyrrolidine-1-carbonyl)pyridin-3-yl)-1H-indazole-3-carboxamide] belongs 0.03 µM; to `NC(=O)c1ccc(NC(=O)c2n[nH]c3ccc(-c4cncc(CN5CCCCC5)c4)cc23)cn1` [Compound 180, N-(6-carbamoylpyridin-3-yl)-5-(5-(piperidin-1-ylmethyl)pyridin-3-yl)-1H-indazole-3-carboxamide], 0.013 µM; to `O=C(NC1CCCC1)c1ccc(NC(=O)c2n[nH]c3ccc(-c4cccnc4)cc23)cn1` [Compound 181, N-(6-(Cyclopentylcarbamoyl)pyridin-3-yl)-5-(pyridin-3-yl)-1H-indazole-3-carboxamide], 0.038 µM.
To `Nc1cncc(-c2ccc3[nH]nc(C(=O)Nc4ccc(N5CCCCC5)nc4)c3c2)c1` [Compound 182, 5-(5-Aminopyridin-3-yl)-N-(6-(piperidin-1-yl)pyridin-3-yl)-1H-indazole-3-carboxamide] belongs 0.035 µM; to `O=C(Nc1ccc(N2CCCC2)nc1)c1n[nH]c2ccc(-c3cncc(CN4CCC(F)(F)C4)c3)cc12` [Compound 183, 5-(5-((3,3-Difluoropyrrolidin-1-yl)methyl)pyridin-3-yl)-N-(6-(pyrrolidin-1-yl)pyridin-3-yl)-1H-indazole-3-carboxamide], 0.049 µM.
For `O=C(NC1CCCC1)c1ccc(NC(=O)c2n[nH]c3ccc(-c4cncc(CN5CCCCC5)c4)cc23)cn1` [Compound 184, N-(6-(Cyclopentylcarbamoyl)pyridin-3-yl)-5-(5-(piperidin-1-ylmethyl)pyridin-3-yl)-1H-indazole-3-carboxamide], the IC50 is 0.04 µM.
Regarding `CS(=O)(=O)c1ccc(NC(=O)c2n[nH]c3ccc(-c4cncc(CN5CCCCC5)c4)cc23)cn1` [Compound 185, N-(6-(Methylsulfonyl)pyridin-3-yl)-5-(5-(piperidin-1-ylmethyl)pyridin-3-yl)-1H-indazole-3-carboxamide], the IC50 worked out at 0.027 µM.
Consider `CN1CCN(c2cncc(-c3ccc4[nH]nc(C(=O)Nc5ccc(N6CCCC6)nc5)c4c3)c2)CC1` [Compound 186, 5-(5-(4-Methylpiperazin-1-yl)pyridin-3-yl)-N-(6-(pyrrolidin-1-yl)pyridin-3-yl)-1H-indazole-3-carboxamide], for which the IC50 is 0.46 µM.
Consider `O=C(Nc1ccc(N2CCCC2)nc1)c1n[nH]c2ccc(-c3cncc(N4CCOCC4)c3)cc12` [Compound 187, 5-(5-Morpholinopyridin-3-yl)-N-(6-(pyrrolidin-1-yl)pyridin-3-yl)-1H-indazole-3-carboxamide], for which the IC50 was found to be 0.215 µM.
On to `O=C(Nc1cccnc1)c1n[nH]c2ccc(-c3cncc(CN4CCC(F)(F)C4)c3)cc12` [Compound 188, 5-(5-((3,3-Difluoropyrrolidin-1-yl)methyl)pyridin-3-yl)-N-(pyridin-3-yl)-1H-indazole-3-carboxamide], for which the IC50 was 0.009 µM.
In the case of `O=C(Nc1cccnc1)c1n[nH]c2ccc(-c3cncc(N4CCCC4)c3)cc12` [Compound 189, N-(Pyridin-3-yl)-5-(5-(pyrrolidin-1-yl)pyridin-3-yl)-1H-indazole-3-carboxamide], the IC50 turned out to be 0.085 µM.
